Measured values as given in patent US20240384311A1, “POLYHYDROXYALKANOATES AND METHODS OF MAKING THEREOF” (The Board of Trustees of the Leland Stanford Junior …, priority 2021, published 2024).
Where two headings read alike, the source gives them in different places.

Experiments:
Format in all cases: cell-based
[1] = tested on: Cupriavidus necator H16 ΔphaC1 pct540-phaC1437; conditions: for Concentration (maximum non-toxic concentration of hydroxyalkanoate): H16 ΔphaC1 pct540-phaC1437, shake-flask, 30° C., determined from 20 mM down in steps of 5 mM until acceptable growth; for final biomass: H16 ΔphaC1 pct540-phaC1437 cultivated with the hydroxyalkanoate at its listed concentration, 30 g/L fructose, 2 g/L ammonium chloride
Procedure: (§1) Liquid cultures under heterotrophic conditions were conducted in 500 mL vented, baffled shake-flasks (WHEATON® Erlenmeyer Flasks with DuoCap®. DWK Life Sciences), incubated with shaking at 180 rpm on an innova 2300 platform shaker (New Brunswick Scientific) at 30° C. For feeding experiments, precultures of the engineered C. necator strains were inoculated in liquid RB+kan (50 mL) from solid RB+kan and grown over-night. In the morning the medium was exchanged for MSM+kan, diluting the culture 1:2 (in 100 mL). In the afternoon the seed-culture was washed with MSM and again diluted 1:2 (in 200 mL) with MSM+kan+polymer-precursor and induced with arabinose (1 g/L, unless indicated otherwise) in the evening. OD was monitored accompanied by collection of supernatant samples.
(§2) In a PHA-negative knock-out mutant (ΔphaC1) of the type-strain ‘H16’, pct540 & phaC1437 and hadA & phaC1437 were expressed, respectively.
(§3) Toxicity limits of the respective hydroxy carbonic acids were determined outgoing from 20 mM down in steps of 5 mM until acceptable growth was obtained in shake-flask experiments at 30° C.
(§4) Cultivations conducted on minimal salt medium with 30 g/L fructose as carbon-source and 2 g/L ammonium chloride as nitrogen-source (limiting). Cultures were inoculated at an OD600 of ≈0.5-1.

[2] = tested on: Cupriavidus necator H16 ΔphaC1 hadA-phaC1437; conditions: shake-flask, 30° C., determined from 20 mM down in steps of 5 mM until acceptable growth
Procedure: as §1, §2, §3, §4

[3] = tested on: Cupriavidus necator H16 wild-type; assay: Shake-flask cultivation with externally supplied hydroxy carbonic acids (toxicity limit, growth), wild-type strain; conditions: for final biomass: H16 wild-type cultivated with the hydroxyalkanoate at its listed concentration, 2 g/L ammonium chloride
Procedure: as §1, §2, §3, §4

[4] = H16 wild-type, shake-flask, 30° C., determined from 20 mM down in steps of 5 mM until acceptable growth, MSM, 30 g/L fructose

| Structure (SMILES) | Concentration (maximum non-toxic concentration of hydroxyalkanoate) [1] | final biomass [1] | Concentration (maximum non-toxic concentration of hydroxyalkanoate) [2] | final biomass ([3]; 30 g/L fructose) | Concentration (maximum non-toxic concentration of hydroxyalkanoate) [3, 4] | Concentration (maximum non-toxic concentration of hydroxyalkanoate) [3] |
| --- | --- | --- | --- | --- | --- | --- |
| O=C(O)CCCO [4-hydroxybutanoic acid] | 20000 µM | 1.9 g/L | 20000 µM | 4.1 g/L | 20000 µM |  |
| CC(O)C(=O)O (centres unmarked) [lactic acid] |  | 1.9 g/L |  | 18.2 g/L |  | 20000 µM |
| O=C(O)/C=C/c1ccc(O)cc1 [para-coumaric acid] |  |  | 5000 µM |  |  |  |
| O=C(O)C(O)Cc1ccccc1 (centres unmarked) [phenyllactic acid] |  |  | 10000 µM |  |  |  |
| O=C(O)CCCCCO [6-hydroxyhexanoic acid] | (<10 mM) | 1.5 g/L | (<10 mM) | 3.5 g/L | (<10 mM) |  |
| O=C(O)C(O)CCc1ccccc1 (centres unmarked) [2-hydroxy-4-phenylbutanoic acid] |  |  | 15000 µM |  |  |  |
| O=C(O)/C=C/c1ccc(O)c(O)c1 [caffeic acid] |  |  | 5000 µM |  |  |  |
| O=C(O)CCO [3-hydroxypropanoic acid] | 20000 µM | 1.6 g/L | 20000 µM | 5.7 g/L | 20000 µM |  |
| O=C(O)CCc1ccc(O)cc1 [phloretic acid] |  |  | 5000 µM |  |  |  |
| O=C(O)CO [glycolic acid] |  | 1.4 g/L |  | 6.8 g/L |  |  |
| O=C(O)C(O)c1ccccc1 (centres unmarked) [mandelic acid] |  |  | 5000 µM |  |  |  |
